Results reported in US11571407B2, “Bicalutamide analogs or (S)-bicalutamide as exocytosis activating compounds for use in the treatment of a lysosomal storage disorder or glycogenosis” (BCN PEPTIDES, S.A., priority 2013, dated 2023).
Marks after values point to notes of the source that are not given here.

What was measured:
[1] = tested on: fibroblasts from patients affected by different lysosomal storage diseases; assay: Determination of glycosaminoglycans (GAGs), 1,9-dimethylmethylene blue (DMB) assay; assay type: cell-based, human; conditions: for Decrease of GAGs (%), Median: Table 5 median over the patients' fibroblasts; for Decrease of GAGs (%), Median / Decrease of GAGs (%): 72 h; for decrease of glycosaminoglycans (in words): fibroblasts from seven patients, 50 and 100 μM
Procedure: (§1) Fibroblasts from thirteen patients affected by seven different lysosomal storage diseases (Fabry, Gaucher, Hurler, Niemann-Pick type A/B, Sanfilippo A, Sanfilippo B and Tay-Sachs) were cultured in DMEM (Dulbecco's modified Eagles medium) with 10% fetal bovine serum and in the presence of antibiotics (penicillin and streptomycin), at 37° C. with 5% CO2. All reagents were purchased from PAA Laboratories (Velizy-Villacoublay, France). The fibroblasts of the patients were selected on the basis of availability of fibroblasts and measurable residual activity. The use of human samples was approved by the Ethical Committee of Hospital Clinic, Barcelona
Glycobiology. […] The fibroblasts were cultured in triplicate in 6-well plates and they were harvested 72 hours after treatment. DMB absorbance was measured in duplicate at 656 nm with a microplate reader (POLARstar Omega, BMG LABTECH, Offenburg, Germany).
Fibroblasts from three patients affected by Sanfilippo B disease and one patient affected by Hurler disease were treated with increasing concentrations of bicalutamide (racemic mixture at increasing concentrations of 0.01, 0.1, 1, 10 and 100 μM). Glycosaminoglycans (GAGs) levels were quantified with the 1,9-dimethylmethylene blue (DMB) assay.
Fibroblasts from seven patients affected by different diseases derived from lysosomal storage (three Sanfilippo B disease patients with different genotypes, one Sanfilippo A disease patient, one Tay-Sachs disease patient, one Niemann-Pick type A/B disease patient and one Hurler disease patient) were independently treated with different concentrations of (R)- and (S)-bicalutamide (50 and 100 μM).

[2] = tested on: fibroblasts from patients affected by different lysosomal storage diseases; assay: Determination of lysosomal exocytosis (β-hexosaminidase activity in the culture medium); assay type: cell-based, human; conditions: for Increase in exocytosis (%), Median: Table 4 median over the patients' fibroblasts; for Increase in exocytosis (%), Median / Increase in exocytosis (%): 72 h; for cell cultures with significantly increased lysosomal exocytosis: thirteen patient fibroblast cultures, 50 and 100 μM, 72 hours
Procedure: as §1
Fibroblasts cultured for 72 h in 24 well-plates in the presence or absence of bicalutamide, (S)-bicalutamide, (S)-bicalutamide analogs or (R)-bicalutamide at different concentrations in triplicate (10 nmol/L, 100 nmol/L, 1 μmol/L, 10 μmol/L, 50 μmol/L and 100 μmol/L), were rinsed with physiological saline. The cells were lysed by using 3 freeze-thaw cycles. Then protein concentration was determined by using the Lowry method. Protein lysates (10 μg) were seeded in 96-well plates and the enzymatic activity of the enzyme involved in each disease was determined in triplicate by means of fluorimetric artificial substrates: 4-methylumbelliferyl-α-N-sulphoglucosaminide for Sanfilippo A, 4-methylumbelliferyl-2-acetamido-2 deoxy-α-D-glucopyranoside for Sanfilippo B, 4-methylumbelliferyl-α-L-iduronide for Hurler, 4-methylumbelliferyl-N-acetyl-β-D-glucosaminide for Tay-sachs, 4-methylumbelliferyl-β-D-glucopyranoside for Gaucher, 4-methylumbelliferyl-α-Galactopiranosid for Fabry disease, and 6-hexadecanoylamino-4-methylumbelliferyl-P-colline for Niemann-Pick type AB. The activity of the enzyme β-hexosaminidase was assayed by using 4-methylumbelliferyl-2 acetamido-2 deoxy-β-D-glucopyranoside as artificial substrate [Annunziata et al., Study of influence of sex and age on human serum lysosomal enzymes by using 4-methylumbelliferyl substrates. Clin. Chim. Acta.
Lysosomal exocytosis was monitorized by measuring the enzymatic activity of the lysosomal enzyme β-hexosaminidase in the culture medium [Xu M, et al, δ-Tocopherol reduces lipid accumulation in Niemann-Pick type C1 and Wolman cholesterol storage disorders. […] The fibroblasts were previously treated with different concentrations of bicalutamide, (S)-bicalutamide or (R)-bicalutamide (10 nmol/L, 100 nmol/L, 1 μmol/L, 10 μmol/L, 50 μmol/L and 100 μmol/L) in triplicate in 24-well plates. At 0, 24, 48 and 72 hours, 30 μL of culture medium was aliquoted for the subsequent β-hexosaminidase activity assay.
Fibroblasts from two patients affected by Sanfilippo B and Hurler diseases were treated with different concentrations of bicalutamide (racemic mixture at increasing concentrations of 0.01, 0.1, 1, 10 and 100 μM). And the increase in lysosomal exocytosis was determined by analyzing the enzymatic activity of the lysosomal enzyme β-hexosaminidase in the culture medium.
Fibroblasts from thirteen patients affected by different lysosomal storage diseases (four Sanfilippo B disease patients with different genotypes, three Sanfilippo A disease patients with different genotypes, two Tay-Sachs disease patients with the same genotype, one Gaucher disease patient, one Niemann-pick type A/B disease patient, one Hurler disease patient, and one Fabry disease patient) were independently treated with different concentrations of (R)- and (S)-bicalutamide (50 and 100 μM) for 72 hours.

[3] = Table 5 patient 1, Sanfilippo B fibroblasts, 50 μM
[4] = Table 5 patient 1, Sanfilippo B fibroblasts, 100 μM
[5] = Table 5 patient 2, Sanfilippo B fibroblasts, 50 μM
[6] = Table 5 patient 2, Sanfilippo B fibroblasts, 100 μM
[7] = Table 5 patient 3, Sanfilippo B fibroblasts, 50 μM
[8] = Table 5 patient 3, Sanfilippo B fibroblasts, 100 μM
[9] = Table 5 patient 4, Sanfilippo A fibroblasts, 50 μM
[10] = Table 5 patient 4, Sanfilippo A fibroblasts, 100 μM
[11] = Table 5 patient 5, Tay-Sachs fibroblasts, 50 μM
[12] = Table 5 patient 5, Tay-Sachs fibroblasts, 100 μM
[13] = Table 5 patient 6, Niemann-Pick AB fibroblasts, 50 μM
[14] = Table 5 patient 6, Niemann-Pick AB fibroblasts, 100 μM
[15] = Table 5 patient 7, Hurler fibroblasts, 50 μM
[16] = Table 5 patient 7, Hurler fibroblasts, 100 μM
[17] = Table 4 patient 1, Sanfilippo B fibroblasts, 50 μM
[18] = Table 4 patient 1, Sanfilippo B fibroblasts, 100 μM
[19] = Table 4 patient 2, Sanfilippo B fibroblasts, 50 μM
[20] = Table 4 patient 2, Sanfilippo B fibroblasts, 100 μM
[21] = Table 4 patient 3, Sanfilippo B fibroblasts, 50 μM
[22] = Table 4 patient 3, Sanfilippo B fibroblasts, 100 μM
[23] = Table 4 patient 4, Sanfilippo B fibroblasts, 50 μM
[24] = Table 4 patient 4, Sanfilippo B fibroblasts, 100 μM
[25] = Table 4 patient 5, Sanfilippo A fibroblasts, 50 μM
[26] = Table 4 patient 5, Sanfilippo A fibroblasts, 100 μM
[27] = Table 4 patient 6, Sanfilippo A fibroblasts, 50 μM
[28] = Table 4 patient 6, Sanfilippo A fibroblasts, 100 μM
[29] = Table 4 patient 7, Sanfilippo A fibroblasts, 50 μM
[30] = Table 4 patient 7, Sanfilippo A fibroblasts, 100 μM
[31] = Table 4 patient 8, Tay-Sachs fibroblasts, 50 μM
[32] = Table 4 patient 8, Tay-Sachs fibroblasts, 100 μM
[33] = Table 4 patient 9, Tay-Sachs fibroblasts, 50 μM
[34] = Table 4 patient 9, Tay-Sachs fibroblasts, 100 μM
[35] = Table 4 patient 10, Gaucher fibroblasts, 50 μM
[36] = Table 4 patient 10, Gaucher fibroblasts, 100 μM
[37] = Table 4 patient 11, Niemann-Pick AB fibroblasts, 50 μM
[38] = Table 4 patient 11, Niemann-Pick AB fibroblasts, 100 μM
[39] = Table 4 patient 12, Hurler fibroblasts, 50 μM
[40] = Table 4 patient 12, Hurler fibroblasts, 100 μM
[41] = Table 4 patient 13, Fabry fibroblasts, 50 μM
[42] = Table 4 patient 13, Fabry fibroblasts, 100 μM

C[C@@](O)(CS(=O)(=O)c1ccc(F)cc1)C(=O)Nc1ccc(C#N)c(C(F)(F)F)c1 (single isomer, unassigned) [(R)-BICALUTAMIDE (2)]
Decrease of GAGs (%), Median ([1]; 50 μM): 0% | Decrease of GAGs (%), Median ([1]; 100 μM): 25* % | Decrease of GAGs (%) [1, 3]: N.S. | Decrease of GAGs (%) [1, 4]: 25* % | Decrease of GAGs (%) [1, 5]: N.S. | Decrease of GAGs (%) [1, 6]: N.S. | Decrease of GAGs (%) [1, 7]: 0% | Decrease of GAGs (%) [1, 8]: 33* % | Decrease of GAGs (%) [1, 9]: 0% | Decrease of GAGs (%) [1, 10]: 0% | Decrease of GAGs (%) [1, 11]: N.S. | Decrease of GAGs (%) [1, 12]: 45* % | Decrease of GAGs (%) [1, 13]: N.S. | Decrease of GAGs (%) [1, 14]: 41* % | Decrease of GAGs (%) [1, 15]: 0% | Decrease of GAGs (%) [1, 16]: 16* % | decrease of glycosaminoglycans (in words) [1]: a decrease of GAGs levels in some cases, but with a lower intensity and not universally | Increase in exocytosis (%), Median ([2]; 50 μM): 0% | Increase in exocytosis (%), Median ([2]; 100 μM): 0% | Increase in exocytosis (%) [2, 17]: 0% | Increase in exocytosis (%) [2, 18]: 257* % | Increase in exocytosis (%) [2, 19]: N.S. | Increase in exocytosis (%) [2, 20]: N.S. | Increase in exocytosis (%) [2, 21]: N.S. | Increase in exocytosis (%) [2, 22]: N.S. | Increase in exocytosis (%) [2, 23]: N.S. | Increase in exocytosis (%) [2, 24]: 0% | Increase in exocytosis (%) [2, 25]: 0% | Increase in exocytosis (%) [2, 26]: 0% | Increase in exocytosis (%) [2, 27]: N.S. | Increase in exocytosis (%) [2, 28]: N.S. | Increase in exocytosis (%) [2, 29]: N.S. | Increase in exocytosis (%) [2, 30]: 0% | Increase in exocytosis (%) [2, 31]: N.S. | Increase in exocytosis (%) [2, 32]: 0% | Increase in exocytosis (%) [2, 33]: N.S. | Increase in exocytosis (%) [2, 34]: 0% | Increase in exocytosis (%) [2, 35]: N.S. | Increase in exocytosis (%) [2, 36]: 0% | Increase in exocytosis (%) [2, 37]: N.S. | Increase in exocytosis (%) [2, 38]: 0% | Increase in exocytosis (%) [2, 39]: N.S. | Increase in exocytosis (%) [2, 40]: N.S. | Increase in exocytosis (%) [2, 41]: N.S. | Increase in exocytosis (%) [2, 42]: 0% | cell cultures with significantly increased lysosomal exocytosis [2]: one of the tested cell cultures

C[C@@](O)(CS(=O)(=O)c1ccc(F)cc1)C(=O)Nc1ccc(C#N)c(C(F)(F)F)c1 [(S)-BICALUTAMIDE (1), (2S)-N-[4-cyano-3-(trifluoromethyl)phenyl]-3-[(4-fluorophenyl)sulfonyl]-2-hydroxy-2-methylpropanamide]
Decrease of GAGs (%), Median ([1]; 50 μM): 18* % | Decrease of GAGs (%), Median ([1]; 100 μM): 38* % | Decrease of GAGs (%) [1, 3]: N.S. | Decrease of GAGs (%) [1, 4]: 22* % | Decrease of GAGs (%) [1, 5]: 18* % | Decrease of GAGs (%) [1, 6]: 39* % | Decrease of GAGs (%) [1, 7]: 15* % | Decrease of GAGs (%) [1, 8]: 20* % | Decrease of GAGs (%) [1, 9]: 27.4* % | Decrease of GAGs (%) [1, 10]: 56* % | Decrease of GAGs (%) [1, 11]: 31* % | Decrease of GAGs (%) [1, 12]: 60* % | Decrease of GAGs (%) [1, 13]: 24* % | Decrease of GAGs (%) [1, 14]: 38* % | Decrease of GAGs (%) [1, 15]: 0% | Decrease of GAGs (%) [1, 16]: 0% | decrease of glycosaminoglycans (in words) [1]: significant and dose-dependent decrease of glycoaminoglicans | Increase in exocytosis (%), Median ([2]; 50 μM): 114* % | Increase in exocytosis (%), Median ([2]; 100 μM): 124* % | Increase in exocytosis (%) [2, 17]: N.S. | Increase in exocytosis (%) [2, 18]: N.S. | Increase in exocytosis (%) [2, 19]: N.S. | Increase in exocytosis (%) [2, 20]: 166* % | Increase in exocytosis (%) [2, 21]: N.S. | Increase in exocytosis (%) [2, 22]: N.S. | Increase in exocytosis (%) [2, 23]: 33* % | Increase in exocytosis (%) [2, 24]: 28* % | Increase in exocytosis (%) [2, 25]: 72* % | Increase in exocytosis (%) [2, 26]: 39* % | Increase in exocytosis (%) [2, 27]: 70* % | Increase in exocytosis (%) [2, 28]: 64* % | Increase in exocytosis (%) [2, 29]: 121* % | Increase in exocytosis (%) [2, 30]: 109* % | Increase in exocytosis (%) [2, 31]: N.S. | Increase in exocytosis (%) [2, 32]: 127* % | Increase in exocytosis (%) [2, 33]: N.S. | Increase in exocytosis (%) [2, 34]: 124* % | Increase in exocytosis (%) [2, 35]: N.S. | Increase in exocytosis (%) [2, 36]: N.S. | Increase in exocytosis (%) [2, 37]: 114* % | Increase in exocytosis (%) [2, 38]: 60* % | Increase in exocytosis (%) [2, 39]: 13629* % | Increase in exocytosis (%) [2, 40]: 5949* % | Increase in exocytosis (%) [2, 41]: 5402* % | Increase in exocytosis (%) [2, 42]: 3432* % | cell cultures with significantly increased lysosomal exocytosis [2]: ten of the thirteen
